Test results taken from patent US12016959B2, “Sustained drug release sheet for treating nerve injury” (OSAKA UNIVERSITY, priority 2016, dated 2024).

Key:
Erk1/2 and Akt = details: through the methylation cycle; Non-Patent Document 2; cited from earlier work
[1] = tested on: rat sciatic nerve crush injury model; test: Histological evaluation (axons, MBP-positive axons), rat sciatic nerve crush injury model; type: in vivo; details: 6 weeks after surgery, mean±SEM
Procedure: (§1) All of animal experiments were went ahead with the approval of the Ethics Committee of the animal laboratory of Osaka University. Six-week-old male Wistar rats (body weights: about 200 g) were used. All of the surgeries were carried out while applying deep sedation with a mixed anesthetic drug composed of midazolam (2 mg/kg), butorphanol (2.5 mg/kg) and medetomidine (0.15 mg/kg). A left sciatic nerve was exposed under clean operations, and a crush injury was applied to a position 5 mm distal to a sciatic notch with a pair of forceps. The time of crushing was 10 seconds, the frequency of crushing operations was three times, and the intervals between the crushing operations was 10 seconds. The fascia and the skin were sutured together with 4-0 nylon. […] The systemic administration of methylcobalamin was performed by placing an osmotic minipump (Model 2ML2; Alzet, Cupertino, CA, USA) under the skin of the back. All of the surgeries were carried out by the same practitioner.
Each of the rats 6 weeks after the surgery was sedated with an anesthetic drug, and a left sciatic nerve was collected therefrom and then fixed with 4% PFA for 5 days and with 20% sucrose for 24 hours and then frozen and embedded. […] The total number of axons and the ratio of myelinated axons (total number of MBP-positive axons)/(total number of axons) were evaluated.

[2] = tested on: rat sciatic nerve crush injury model; test: Motor function, sciatic function index (SFI), rat sciatic nerve crush injury model; type: in vivo; details: 6 weeks after surgery; 0 = normal, −100 = impaired; untreated group −20.6±4.2; mean±SEM
Procedure: as §1, with “All of the surgeries were carried out by the same practitioner.” left out
For the evaluation of a motor function, a sciatic function index (SFI) was measured 6 weeks after the surgery. For the measurement of an SFI, an ink was applied to the back paw of a rat, then the rat was allowed to walk on office paper placed on a 40 cm-square horizontal table, and then foot prints of the rat were recorded. The four items mentioned below were measured to calculate an SFI. […] An SFI value was calculated in accordance with the following mathematical formula. […]

[3] = Concentration of vitamin B12 (drug) in blood, rat sciatic nerve crush injury model; type: in vivo; details: 6 weeks after surgery; mean±SEM
Procedure: The examination on the sheet that contained the present extract as a drug was carried out in the same manner.
Blood was collected in an amount of 1 mL from the left ventricle of a rat under anesthesia 6 weeks after the surgery. The collected blood was centrifuged at 800×g for 20 minutes to collect a supernatant. The measurement of a concentration of vitamin B12 in the blood was entrusted to BML, INC. (Tokyo).

[4] = tested on: rat sciatic nerve crush injury model; test: Sensory function, von Frey filament test, rat sciatic nerve crush injury model; type: in vivo; details: 6 weeks after surgery; untreated group 117.8±11.7 g; mean±SEM
Procedure: as §1, with “All of the surgeries were carried out by the same practitioner.” left out
For the evaluation of a sensory function, a mechanical hind paw withdrawal threshold was measured 6 weeks after the surgery using a von Frey filament (0.008 to 26 g; Touch Test, North Coast Medical Inc, Gilroy, CA, USA). Each of the rats was made walk on a metallic mesh, then a pressure was applied onto the center of the sole until the filament began to bend, and then a value at which the rat evoked an escape behavior was recorded.

[5] = tested on: rat sciatic nerve injury model; details: continuous high-dose administration; Non-Patent Document 2; cited from earlier work
[6] = tested on: rat sciatic nerve crush injury model; test: Electrophysiological evaluation (CMAP, TL, NCV), rat sciatic nerve crush injury model; type: in vivo; details: 6 weeks after surgery, mean±SEM
Procedure: as §1
Each of the rats 3 or 6 weeks after the surgery was sedated with an anesthetic drug and was then placed on an operating table in a prone position. A left sciatic nerve and a left tibialis anterior muscle were exposed. Each of a compound muscle action potential (CMAP) and a terminal latency (TL) was measured while stimulating a proximal site of a sciatic nerve with a bipolar electrode. A nerve conduction velocity (NCV) was calculated from measurement values respectively obtained at a proximal site and a distal site to the sciatic nerve crush injury while stimulating the positions with a bipolar electrode. In the measurement and the evaluation, AD Instruments Power Lab 2/26, Stimulus isolator, and Bio Amp and Chart & Scope software (all manufactured by AD Instruments, Bel la Vista, NSW, Australis) were used.

neurons = details: Non-Patent Document 2; cited from earlier work

## C/C1=C2/[N-][C@H]([C@H](CC(N)=O)[C@@]2(C)CCC(=O)NC[C@@H](C)OP(=O)([O-])O[C@H]2[C@@H](O)[C@@H](n3cnc4cc(C)c(C)cc43)O[C@@H]2CO)[C@]2(C)N=C(/C(C)=C3N=C(/C=C4N=C1[C@@H](CCC(N)=O)C\4(C)C)[C@@H](CCC(N)=O)[C@]\3(C)CC(N)=O)[C@@H](CCC(N)=O)[C@]2(C)CC(N)=O.[CH3-].[Co+3] [MeCbl pump, methylcobalamin]
Erk1/2 and Akt
  activities of Erk1/2 and Akt: increase the activities of Erk1/2 and Akt
[1]; untreated group 85.0±0.9%
  ratio of myelinated axons (number of MBP-positive axons)/(total number of axons): 91.5±0.6%
[1]; untreated group 2843±68/mm^2
  number of regenerated axons per sq. mm: 2735±77 /mm^2
[2]
  sciatic function index (SFI): −10.5±2.0
[3]
  concentration of vitamin B12 in the blood: 18.35 ± 2.27 ng/mL
[4]
  von Frey filament test, mechanical hind paw withdrawal threshold: 77.8 ± 7.0 g
[5]
  nerve regeneration and function recovery: improves nerve regeneration and function recovery
[6]; untreated group 3.45±0.08 ms
  terminal latency (TL): 3.24 ± 0.07 ms
[6]; untreated group 19.5±2.3 mV
  compound muscle action potential (CMAP): 19.5±1.5 mV
[6]; untreated group 28.2±2.5 m/s
  nerve conduction velocity (NCV): 43.2±2.5 m/s
neurons
  concentration that can promote the elongation of neurites and the survival of neurons: ≥ 100 nM
